Assay type in all cases: biochemical
Assay [1] has as its target T1, myeloperoxidase (MPO) (Homo sapiens (Human), UniProt P05164). Description: MPO peroxidation assay (Amplex Red assay). To be noted: potency range class. In a few lines:
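Human MPO at 200 pM with 40 nM H2O2 preincubated 10 min at room temperature with inhibitor in 100 mM KPi pH 7.4. Reaction started with Amplex Red mixture (200 μM Amplex Red, 10 mM H2O2); resorufin fluorescence (Ex 535, Em 590 nm) read kinetically for 15 min. IC50 fitted from slopes over 180-540 s.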

Assay [2] concerns the target T1, myeloperoxidase (MPO). Description: MPO chlorination assay (APF assay). The conditions noted are these: potency range class. Summed up: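 Human MPO (200 pM) preincubated 10 min at room temperature with inhibitor and 120 mM NaCl in 100 mM KPi pH 7.4. Reaction started with APF plus 10 μM H2O2, and hypochlorite-generated fluorescein read kinetically (ex 485/em 535 nm) for 3 min. IC50 from linear-phase slopes fitted to a four-parameter equation.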

Assay [3] deals with eosinophil peroxidase (EPX) (Homo sapiens (Human), UniProt P11678). Description: EPX bromination assay. Here is the method:
[formula] where A=minimal Y value (activity level of inhibited sample), B=maximal Y value (activity level of uninhibited sample), C=Log IC50, D=Hill Slope, x=concentration of inhibitor. EPX Bromination Assay
EPX bromination activity was measured in 100 mM KPi (pH 7.4) by monitoring the H2O2 catalyzed formation of 3-bromo tyrosine from tyrosine and potassium bromide. A 50 μl mixture of 0.6 μM EPX (Lee Biosolutions Cat. #342-60) was added to 100 nL inhibitor in 100% DMSO in a 384 well REMP plate. Enzyme and compound were preincubated for ten minutes at room temperature.
After the ten minute preincubation of enzyme and inhibitor, 25 μL of a mixture containing 400 μM tyrosine and 1200 μM potassium bromide was added to the plate containing enzyme and inhibitor, followed by the addition of 25 μl of 20 μM H2O2. The reaction was allowed to proceed for 15 minutes, at which time it was quenched with 10 μL of 20% TCA. The final concentrations of all components were 0.3 μM EPX, 100 μM tyrosine, […], 5 μM H2O2, 0.1% DMSO, 2.0% TCA.
IC50 values were determined by determining the peak areas of 3-bromotyrosine present at the end of the 15 minute reaction and fitting the data to:
[formula] where A=minimal Y value (activity level of inhibited sample), B=maximal Y value (activity level of uninhibited sample), C=Log IC50, D=Hill Slope, x=concentration of inhibitor.
Reversed-phase analysis was performed on a Waters Acquity Ultra Performance LC system using an Acquity UPLC BEH C18 […], 2.1×50 mm analytical column. The column was maintained at 60° C. Samples were eluted using a gradient of 0%-100% B over 2.5 minutes, followed by equilibration with 100% A for 1 minute where A consisted of 0.1% TFA and B consisted of 90% MeOH/0.1% TFA at a flow rate of 0.6 mL/min. The retention time of 3-bromo tyrosine was 1.22 min (Method A).

We go through 24 molecules from patent US10407422B2, “Triazolopyridine inhibitors of myeloperoxidase” (priority 2015, dated 2019).

T1 sequence (P05164 49-745): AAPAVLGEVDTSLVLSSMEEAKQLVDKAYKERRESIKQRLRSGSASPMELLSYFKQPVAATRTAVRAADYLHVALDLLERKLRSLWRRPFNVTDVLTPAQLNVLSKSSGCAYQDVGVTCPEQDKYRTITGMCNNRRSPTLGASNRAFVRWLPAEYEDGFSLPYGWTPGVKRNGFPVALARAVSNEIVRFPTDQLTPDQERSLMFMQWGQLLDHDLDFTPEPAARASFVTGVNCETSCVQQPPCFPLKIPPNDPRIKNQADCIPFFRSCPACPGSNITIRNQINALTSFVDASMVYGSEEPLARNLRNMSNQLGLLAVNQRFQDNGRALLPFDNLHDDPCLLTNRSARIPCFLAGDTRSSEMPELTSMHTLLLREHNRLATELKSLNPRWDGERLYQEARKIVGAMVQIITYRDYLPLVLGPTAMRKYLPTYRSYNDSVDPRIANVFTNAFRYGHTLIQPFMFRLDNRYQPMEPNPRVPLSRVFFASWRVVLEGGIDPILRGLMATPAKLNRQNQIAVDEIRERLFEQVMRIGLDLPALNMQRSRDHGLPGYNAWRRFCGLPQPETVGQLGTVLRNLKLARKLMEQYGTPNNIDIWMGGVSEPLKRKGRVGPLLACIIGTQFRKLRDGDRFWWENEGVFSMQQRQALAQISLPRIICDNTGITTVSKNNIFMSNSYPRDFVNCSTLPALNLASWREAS
eosinophil peroxidase (EPX), sequence (P11678 140-715): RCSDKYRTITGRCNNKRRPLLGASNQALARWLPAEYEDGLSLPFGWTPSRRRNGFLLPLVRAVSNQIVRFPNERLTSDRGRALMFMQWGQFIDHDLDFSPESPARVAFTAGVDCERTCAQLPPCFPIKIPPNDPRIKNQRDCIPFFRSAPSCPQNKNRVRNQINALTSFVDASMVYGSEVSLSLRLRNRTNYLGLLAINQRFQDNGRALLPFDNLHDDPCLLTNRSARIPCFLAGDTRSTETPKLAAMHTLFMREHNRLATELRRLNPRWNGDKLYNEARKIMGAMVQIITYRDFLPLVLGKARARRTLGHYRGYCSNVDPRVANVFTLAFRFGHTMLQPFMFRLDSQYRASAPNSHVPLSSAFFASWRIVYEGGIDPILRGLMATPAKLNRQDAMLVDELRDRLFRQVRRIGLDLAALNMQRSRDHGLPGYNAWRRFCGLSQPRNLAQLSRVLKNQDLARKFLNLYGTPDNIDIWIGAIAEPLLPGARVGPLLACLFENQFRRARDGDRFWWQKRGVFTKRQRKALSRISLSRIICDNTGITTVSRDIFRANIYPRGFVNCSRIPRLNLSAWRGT

Regarding `Nc1cc(Cc2cnn(Cc3cccc(-c4cccnc4)c3)c2)c2nn[nH]c2n1` [Example 124, 7-((1-(3-(Pyridin-3-yl)benzyl)-1H-pyrazol-4-yl)methyl)-3H-[1,2,3]triazolo[4,5-b]pyridin-5-amine], the half-inhibitory concentration (IC50) on myeloperoxidase (MPO) [1] and against myeloperoxidase (MPO) [2] was 1 to 100 nM throughout.
As for `Nc1cc(Cn2cc(-c3ccccc3)nn2)c2nn[nH]c2n1` [Example 162, 7-[(4-Phenyl-1H-1,2,3-triazol-1-yl)methyl]-3H-[1,2,3]triazolo[4,5-b]pyridin-5-amine], the IC50 at myeloperoxidase (MPO) [1] and against myeloperoxidase (MPO) [2] was 101 to 999 nM each time.
Take `Nc1cc(Cc2cnn(Cc3ccc(-c4ccccc4)cc3)c2)c2nn[nH]c2n1` [Example 39, 7-((1-([1,1′-Biphenyl]-4-ylmethyl)-1H-pyrazol-4-yl)methyl)-3H-[1,2,3]triazolo[4,5-b]pyridin-5-amine]: the IC50 (in general, the concentration at which inhibition is half-maximal) lay in the range of 1 to 100 nM against myeloperoxidase (MPO) [1] and 101 to 999 nM at myeloperoxidase (MPO) [2].
The matching figures for `Cc1cncc(Oc2cccc(Cn3cc(Cc4cc(N)nc5[nH]nnc45)cn3)c2)n1` [Example 140, 7-{[1-({3-[(6-Methylpyrazin-2-yl)oxy]phenyl}methyl)-1H-pyrazol-4-yl]methyl}-3H-[1,2,3]triazolo[4,5-b]pyridin-5-amine]: 1 to 100 nM and 101 to 999 nM.
The matching figures for `Nc1cc(Cc2cnn(Cc3cccc(-c4ccc(OC(F)(F)F)cc4)c3)c2)c2nn[nH]c2n1` [Example 155, 7-{[1-({3-[4-(Trifluoromethoxy)phenyl]phenyl}methyl)-1H-pyrazol-4-yl]methyl}-3H-[1,2,3]triazolo[4,5-b]pyridin-5-amine]: 101 to 999 nM and 101 to 999 nM.
Take `Nc1cc(Cc2cnn(Cc3cccc(C4CCNC4)c3)c2)c2nn[nH]c2n1` (stereo in doubt) [Example 191, 7-{[1-({3-[(3S)-Pyrrolidin-3-yl]phenyl}yl]methyl}-3H-[1,2,3]triazolo[4,5-b]pyridin-5-amine]: the half-inhibitory concentration (IC50) against myeloperoxidase (MPO) [1] and on myeloperoxidase (MPO) [2] was 1 to 100 nM each time.
As to `Nc1cc(Cc2cnn(Cc3cccc(C4CCNCC4)c3)c2C(F)(F)F)c2nn[nH]c2n1` [Example 285, 7-[(1-{[3-(Piperidin-4-yl)phenyl]methyl}-5-(trifluoromethyl)-1H-pyrazol-4-yl)methyl]-3H-[1,2,3]triazolo[4,5-b]pyridin-5-amine], the IC50 against myeloperoxidase (MPO) [1] and against myeloperoxidase (MPO) [2] was 1 to 100 nM in each case.
On to `Nc1cc(Cc2cnn(C3CCC3)c2)c2nn[nH]c2n1` [Example 53, 7-((1-Cyclobutyl-1H-pyrazol-4-yl)methyl)-3H-[1,2,3]triazolo[4,5-b]pyridin-5-amine], for which the half-inhibitory concentration (IC50) was 32 nM in assay [3] and 1 to 100 nM against myeloperoxidase (MPO) [1].
On to `Nc1cc(Cc2cnn(Cc3ccc4cc[nH]c(=O)c4c3)c2)c2nn[nH]c2n1` [Example 175, 7-((4-((5-Amino-3H-[1,2,3]triazolo[4,5-b]pyridin-7-yl)methyl)-1H-pyrazol-1-yl)methyl)isoquinolin-1(2H)-one], for which the half-inhibitory concentration (IC50) against myeloperoxidase (MPO) [1] lay within 1 to 100 nM; against myeloperoxidase (MPO) [2] it was 101 to 999 nM.
In the case of `Nc1cc(Cc2cnn(Cc3cccc(Oc4cccc5c4CNC5)c3)c2)c2nn[nH]c2n1` [Example 231, 7-[(1-{[3-(2,3-Dihydro-1H-isoindol-4-yloxy)phenyl]methyl}-1H-pyrazol-4-yl)methyl]-3H-[1,2,3]triazolo[4,5-b]pyridin-5-amine], the half-maximal inhibitory concentration (IC50) on myeloperoxidase (MPO) [1] and on myeloperoxidase (MPO) [2] was 1 to 100 nM in each case.
Consider `COc1ccc(-c2ccc(Cn3cc(Cc4cc(N)nc5[nH]nnc45)cn3)cc2)cn1` [Example 105, 7-((1-(4-(6-Methoxypyridin-3-yl)benzyl)-1H-pyrazol-4-yl)methyl)-3H-[1,2,3]triazolo[4,5-b]pyridin-5-amine], for which the IC50 against myeloperoxidase (MPO) [1] and at myeloperoxidase (MPO) [2] was 101 to 999 nM each time.
With `Cc1cccc(-n2cc(Cc3cc(N)nc4[nH]nnc34)cn2)c1` [Example 25, 7-((1-(3-Methylphenyl)-1H-pyrazol-4-yl)methyl)-3H-[1,2,3]triazolo[4,5-b]pyridin-5-amine], the results for the IC50 at myeloperoxidase (MPO) [1] and at myeloperoxidase (MPO) [2] were 1 to 100 nM and 101 to 999 nM, respectively.
As to `CC1NCCc2cc(Cn3cc(Cc4cc(N)nc5[nH]nnc45)cn3)ccc21` (stereo not drawn) [Example 181, 7-({1-[(1-Methyl-1,2,3,4-tetrahydroisoquinolin-6-yl)methyl]-1H-pyrazol-4-yl}methyl)-3H-[1,2,3]triazolo[4,5-b]pyridin-5-amine], the IC50 against myeloperoxidase (MPO) [1] and on myeloperoxidase (MPO) [2] was 1 to 100 nM in each case.
For the molecule `Nc1cc(Cc2cnn(Cc3cc(-c4ccccc4)on3)c2)c2nn[nH]c2n1` [Example 121, 7-((1-((5-Phenylisoxazol-3-yl)methyl)-1H-pyrazol-4-yl)methyl)-3H-[1,2,3]triazolo[4,5-b]pyridin-5-amine], the IC50 lay in the range of 1 to 100 nM against myeloperoxidase (MPO) [1] and 101 to 999 nM against myeloperoxidase (MPO) [2].
The matching figures for `Nc1cc(Cc2cnn(CCc3ccccc3)c2)c2nn[nH]c2n1` [Example 40, 7-((1-Phenethyl-1H-pyrazol-4-yl)methyl)-3H-[1,2,3]triazolo[4,5-b]pyridin-5-amine]: 1 to 100 nM and 1 to 100 nM.
On to `Nc1cc(Cc2cnn(Cc3cccc4c3Cc3ccccc3-4)c2)c2nn[nH]c2n1` [Example 266, 7-{[1-(9H-Fluoren-1-ylmethyl)-1H-pyrazol-4-yl]methyl}-3H-[1,2,3]triazolo[4,5-b]pyridin-5-amine], for which the concentration for half-maximal inhibition (IC50) at myeloperoxidase (MPO) [1] was in the range of 1 to 100 nM; against myeloperoxidase (MPO) [2], 101 to 999 nM.
On the same counts, the results for `Nc1cc(Cc2cnn(Cc3ccc(C(=O)N4CCC(O)C4)cc3)c2)c2nn[nH]c2n1` (stereo not drawn) [Example 84, 1-(4-{[4-({5-Amino-3H-[1,2,3]triazolo[4,5-b]pyridin-7-yl}methyl)-1H-pyrazol-1-yl]methyl}benzoyl)pyrrolidin-3-ol] are 101 to 999 nM and 101 to 999 nM.
The matching figures for `Nc1cc(Cc2cn(Cc3ccccc3)nc2C(F)(F)F)c2nn[nH]c2n1` [Example 283, 7-{[1-Benzyl-3-(trifluoromethyl)-1H-pyrazol-4-yl]methyl}-3H-[1,2,3]triazolo[4,5-b]pyridin-5-amine]: 1000 to 10000 nM and 101 to 999 nM.
As to `Nc1cc(Cc2cnn(Cc3ccc4c(c3)OCO4)c2)c2nn[nH]c2n1` [Example 150, 7-{[1-(2H-1,3-Benzodioxol-5-ylmethyl)-1H-pyrazol-4-yl]methyl}-3H-[1,2,3]triazolo[4,5-b]pyridin-5-amine], the IC50 against myeloperoxidase (MPO) [1] lay in the range of 1 to 100 nM; against myeloperoxidase (MPO) [2], 101 to 999 nM.
On the same counts, the results for `Cc1nnc([C@@H]2C[C@@H](Oc3cccc(Cn4cc(Cc5cc(N)nc6[nH]nnc56)cn4)c3)CN2)o1` [Example 246, 7-({1-[(3-{[(3R,5S)-5-(5-Methyl-1,3,4-oxadiazol-2-yl)pyrrolidin-3-yl]oxy}phenyl)methyl]-1H-pyrazol-4-yl}methyl)-3H-[1,2,3]triazolo[4,5-b]pyridin-5-amine] are 1000 to 10000 nM and 1000 to 10000 nM.
For `Nc1cc(Cc2cnn(Cc3cccc(OC[C@@H]4CCCN4)c3)c2)c2nn[nH]c2n1` [Example 242, 7-{[1-({3-[(2S)-Pyrrolidin-2-ylmethoxy]phenyl}methyl)-1H-pyrazol-4-yl]methyl}-3H-[1,2,3]triazolo[4,5-b]pyridin-5-amine], the 50% inhibitory concentration (IC50) against myeloperoxidase (MPO) [1] and against myeloperoxidase (MPO) [2] was 1 to 100 nM in each case.
As for `Nc1cc(Cc2cnn(Cc3cccc([C@@H]4CNCCO4)c3)c2)c2nn[nH]c2n1` [Example 257, 7-{[1-({3-[(2R)-Morpholin-2-yl]phenyl}methyl)-1H-pyrazol-4-yl]methyl}-3H-[1,2,3]triazolo[4,5-b]pyridin-5-amine], the IC50 against myeloperoxidase (MPO) [1] and on myeloperoxidase (MPO) [2] was 1 to 100 nM throughout.
Take `Nc1cc(Cc2cnn(Cc3ccc(C(=O)NCc4cn[nH]c4)cc3)c2)c2nn[nH]c2n1` [Example 79, 4-{[4-({5-Amino-3H-[1,2,3]triazolo[4,5-b]pyridin-7-yl}methyl)-1H-pyrazol-1-yl]methyl}-N-(1H-pyrazol-4-ylmethyl)benzamide]: the IC50 was in the range of 1 to 100 nM at myeloperoxidase (MPO) [1] and 101 to 999 nM against myeloperoxidase (MPO) [2].
Take `Nc1cc(Cc2cnn(Cc3nc(-c4ccccc4)no3)c2)c2nn[nH]c2n1` [Example 120, 7-((1-((3-Phenyl-1,2,4-oxadiazol-5-yl)methyl)-1H-pyrazol-4-yl)methyl)-3H-[1,2,3]triazolo[4,5-b]pyridin-5-amine]: the IC50 was 1 to 100 nM on myeloperoxidase (MPO) [1] and 101 to 999 nM against myeloperoxidase (MPO) [2].
